Assay results: patent publication US20070292385A1, “Phospholipase Inhibitors Localized in the Gastrointestinal Lumen” (priority 2004, published 2007)
Read-outs that look alike come from different tables or passages of the source. One block for each molecule: values may come before it.

What was measured:
[1] = target: T1, Porcine PLA2 IB (Sus scrofa, UniProt P00592); assay: continuous fluorimetric assay for PLA2 activity (PPyrPG vesicles); assay type: biochemical; conditions: 37° C.
T1 construct: purchased
T1 sequence (P00592 23-146): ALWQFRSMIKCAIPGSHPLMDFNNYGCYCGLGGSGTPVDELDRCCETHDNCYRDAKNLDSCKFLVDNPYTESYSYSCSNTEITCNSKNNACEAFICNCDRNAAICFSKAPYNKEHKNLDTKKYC
Excerpt: A continuous fluorimetric assay for PLA2 activity described in the literature was used to determine IC (Leslie, C C and Gelb, M H (2004) Methods in Molecular Biology “Assaying phospholipase A2 activity”, 284: 229-242, Singer, A G, et al. (2002) Journal of Biological Chemistry “Interfacial kinetic and binding properties of the complete set of human and mouse groups I, II, V, X, and XII secreted phospholipases A2”, 277: 48535-48549, Bezzine, S, et al. (2000) Journal of Biological Chemistry “Exogenously added human group X secreted phospholipase A(2) but not the group IB, IIA, and V enzymes efficiently release arachidonic acid from adherent mammalian cells”, 275: 3179-3191) and references therein.
Generally, this assay used a phosphatidylglycerol (or phosphatidylmethanol) substrate with a pyrene fluorophore on the terminal end of the sn-2 fatty acyl chain. […] The effect of a given inhibitor and inhibitor concentration on any given phospholipase can be determined. […]
In this example, the procedure was performed as follows: • 1. […] The fluorescence was read using an excitation of 342 nm and an emission of 395 nm.
In this example, the IC50 was calculated using the BioDataFit 1.02 (Four Parameter Model) software package. […]

[2] = pharmokinetic study, IV and oral; assay type: in vivo, mice; conditions: for AUC(0-inf) / Cmax / Tmax / half-life: mouse, plasma; for half-life: read-out: t½ (converted)
Experimental: This example characterized ILY-4001 [2-(3-(2-amino-2-oxoacetyl)-1-(biphenyl-2-ylmethyl)-2-methyl-1H-indol-4-yloxy)acetic acid], alternatively referred to herein as methyl indoxam, with respect to activity, as determined by IC50 assay (Example 1B-1), with respect to cell absorbtion, as determined by in-vitro Caco-2 assay (Example 1B-2) and with respect to bioavailability, as determined using in-vivo mice studies (Example 1B-3).
Bioavailability was calculated as a ratio of AUC-oral/AUC-intravenous (IV). To determine this ratio, a first set of subject animals were given a measured intravenous (IV) dose of ILY-4001, followed by a determination of ILY-4001 levels in the blood at various time points after administration (e.g., 5 minutes through 24 hours). Another second set of animals was similarly dosed using oral administration, with blood levels of ILY-4001 determined at various time points after administration (e.g., 30 minutes through 24 hours). The level of ILY-4001 in systemic circulation were determined by generally accepted methods (for example as described in Evans, G., A Handbook of Bioanalysis and Drug Metabolism. Boca Raton, CRC Press (2004)). Specifically, […]/mass spectrometry/mass spectrometry (LC/MS/MS) analytical methods were used to quantitate plasma concentrations of ILY-4001 after oral and intravenous administration. Pharmacokinetic parameters that were measured include Cmax, AUC, tmax, t1/2, and F (bioavailability).
In this procedure, ILY-4001 was dosed at 3 mg/kg IV and 30 mg/kg oral. […] This indicated about a 72% level of non-absorption of ILY-4001 from the GI tract into systemic circulation.

[3] = tested on: Caco-2 monolayers; assay: Caco-2 permeability study; conditions: apical to basolateral
[4] = in-vivo study on high fat/high sucrose diabetogenic diet (Example 10); parameters: species or system C57BL/6 mice; conditions: for fasting glucose levels: low dose 25 mg/kg/day
Experimental: ILY-4001 (FIG. 5) was evaluated as a PLA2 IB inhibitor in a set of experiments using wild-type mice and genetically deficient PLA2 (−/−) mice (also referred to herein as PLA2 knock-out (KO) mice). In these experiments, wild-type and PLA2 (−/−) mice were maintained on a high fat/high sucrose diet, details of which are described below.
Briefly, four groups were set up, each having six mice. Three of the groups included six wild-type PLA2 (+/+) mice in each group (eighteen mice total), and one of the groups included six genetically deficient PLA2 (−/−) mice. One of the wild-type groups was used as a wild-type control group, and was not treated with ILY-4001. The other two wild-type groups were treated with ILY-4001—one group at a lower dose (indicated as “L” in Table 1) of 25 mg/kg/day, and the other at a higher dose (indicated as “H” in Table 1) of 90 mg/kg/day. The group comprising the PLA2 (−/−) mice was used as a positive control group.
The experimental protocol used in this study was as follows. The four groups of mice, including wild type and isogenic PLA2 (−/−) C57BL/J mice were acclimated for three days on a low fat/low carbohydrate diet. After the three day acclimation phase, the animals were fasted overnight and serum samples taken to establish baseline plasma cholesterol, triglyceride, and glucose levels, along with baseline body weight. The mice in each of the treatment groups were then fed a high fat/high sucrose diabetogenic diet (Research Diets D12331). 1000 g of the high fat/high sucrose D12331 diet was composed of casein (228 g), DL-methionine (2 g), maltodextrin 10 (170 g), sucrose (175 g), soybean oil (25 g), hydrogenated coconut oil (333.5 g), mineral mix S10001 (40 g), sodium bicarbonate (10.5 g), potassium citrate (4 g), vitamin mix V10001 (10 g), and choline bitartrate (2 g). This diet was supplemented with ILY-4001 treatments such that the average daily dose of the compound ingested by a 25 g mouse was: 0 mg/kg/day (wild-type control group and PLA2 (−/−) control group); 25 mg/kg/day (low-dose wild-type treatment group), or 90 mg/kg/day (high-dose wild-type treatment group). The animals were maintained on the high fat/high sucrose diet, with the designated ILY-4001 supplementation, for a period of ten weeks.
Body weight measurements were taken for all animals in all treatment and control groups at the beginning of the treatment period and at 4 weeks and 10 weeks after initiation of the study. (See Example 10A). Blood draws were also taken at the beginning of the treatment period (baseline) and at 4 weeks and 10 weeks after initiation of the study, in order to determine fasting glucose (See Example 10B). Cholesterol and triglyceride levels were determined from blood draws taken at the beginning of the treatment (baseline) and at ten weeks. (See Example 10C).

[5] = tested on: PL A2; conditions: cited from earlier work
[6] = tested on: Caco-2 monolayers
[7] = low and high doses (25 and 90 mg/kg/day), 10 weeks

Molecule: Cc1c(C(=O)C(N)=O)c2c(OCC(=O)O)cccc2n1Cc1ccccc1-c1ccccc1 [ILY-4001, 2-(3-(2-amino-2-oxoacetyl)-1-(biphenyl-2-ylmethyl)-2-methyl-1H-indol-4-yloxy)acetic acid]
IC50 [1]: 62 nM
AUC(0-inf) ([2]; iv, 3 mg/kg): 2760 ng·h/mL
Cmax ([2]; iv, 3 mg/kg): 3170 ng/mL
Tmax ([2]; iv, 3 mg/kg): 0.083 h
AUC(0-t) ([2]; mouse, plasma, iv, 3 mg/kg; read-out: AUC 0-24)): 2790 ng·h/mL
half-life ([2]; iv, 3 mg/kg): 1.03 h
AUC(0-inf) ([2]; oral, 30 mg/kg): 5730 ng·h/mL
Cmax ([2]; oral, 30 mg/kg): 2290 ng/mL
Tmax ([2]; oral, 30 mg/kg): 1 h
AUC(0-t) ([2]; mouse, plasma; oral, 30 mg/kg; read-out: AUC 0-24)): 5950 ng·h/mL
half-life ([2]; oral, 30 mg/kg): 1.25 h
apparent permeability [3]: around 1.66×10^−7 cm/s
body weight gain compared to wild-type control group ([4]; 25 mg/kg/d and 90 mg/kg/d in diet, week 4 and week 10): significantly reduced
plasma levels of cholesterol [4, 7]: substantially reduced
plasma levels of triglycerides [4, 7]: substantially reduced
fasting glucose levels ([4]; week four): moderately beneficial effect
fasting glucose levels ([4]; week ten): beneficial effect was not observed

Molecule: CCC1=C(CC(N)=O)c2cc(OCCCP(=O)(O)O)ccc2C1Nc1ccccc1 (stereo not shown)
IC50 [5]: sub μM range

apparent permeability [6]: around 2.82×10^−7+/−0.37×10^−7 cm/s
Molecule: Lucifer Yellow
